A word on the IC50: it is the concentration that gives 50% inhibition. The low end stands for greater potency in that assay, the high end for weaker potency in that assay.

The results in this text go back to patent US12673944B2, “Compounds having inhibitory activity against glucosylceramide synthase or pharmaceutically acceptable salt thereof, processes for preparing the same, and pharmaceutical compositions comprising the same” (YUHAN CORPORATION, priority 2019, dated 2026).

Assay [1] concerns GM1 production in Jurkat cells. Nature of the assay: cells. The assay is classed as cell-based. As to conditions: Homo sapiens, Jurkat, 72 h.
The target of assay [2] is T1, glucosylceramide synthase (GCS) (Homo sapiens, UniProt Q16739).
T1 construct: The obtained supernatant was used; host or cells: A549 cells (lysate supernatant after sonication)
T1 sequence (Q16739 1-394): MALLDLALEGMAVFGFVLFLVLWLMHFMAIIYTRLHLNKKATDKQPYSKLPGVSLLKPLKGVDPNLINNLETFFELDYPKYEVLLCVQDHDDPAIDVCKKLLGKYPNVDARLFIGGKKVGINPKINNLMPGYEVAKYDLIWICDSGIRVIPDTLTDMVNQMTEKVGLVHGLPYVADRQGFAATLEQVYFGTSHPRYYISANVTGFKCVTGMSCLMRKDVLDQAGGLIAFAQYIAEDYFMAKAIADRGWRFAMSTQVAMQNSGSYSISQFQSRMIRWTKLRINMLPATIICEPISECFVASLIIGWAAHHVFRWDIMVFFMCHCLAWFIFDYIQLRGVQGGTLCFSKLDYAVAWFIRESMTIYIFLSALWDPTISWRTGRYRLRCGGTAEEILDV
Nature of the assay: GCS enzyme inhibition assay (A549 cell lysate, NBD C6-ceramide, HPLC fluorescence). Type of assay: biochemical. As to conditions: inhibitory activity against GCS, 37° C., 90 minutes. The method, boiled down:
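A549 cell lysate (50 mM HEPES pH 7.3) served as GCS source; reactions ran 90 min at 37° C, were stopped with chloroform/methanol and lipids extracted. Activity taken as GlcCer/(Cer+GlcCer) peak area, normalised between DMSO and ibiglustat controls.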

For `CC1(C)COc2cc(-c3cccc(F)c3F)ccc2C1NC(=O)O[C@@H]1CN2CCC1CC2` (stereo partly drawn) [Example 239, (S)-quinuclidin-3-yl (7-(2,3-difluorophenyl)-3,3-dimethylchroman-4-yl)carbamate], the values for the IC50 in assay [1] and in assay [2] were 4.8 nM and 0.47 nM, respectively.

As for `CC1(C)COc2cc(-c3cc(F)cc(F)c3)ccc2C1NC(=O)O[C@@H]1CN2CCC1CC2` (stereo partly drawn) [Example 240, (S)-quinuclidin-3-yl (7-(3,5-difluorophenyl)-3,3-dimethylchroman-4-yl)carbamate], the IC50 in assay [1] came out at 5 nM; in assay [2], 0.92 nM.

For `COc1ccc(-c2ccc3c(c2)OCC(C)(C)C3NC(=O)O[C@@H]2CN3CCC2CC3)cn1` (stereo partly drawn) [Example 241, (S)-quinuclidin-3-yl (7-(6-methoxypyridin-3-yl)-3,3-dimethylchroman-4-yl)carbamate], the IC50 is 24.1 nM in assay [1] and 0.81 nM in assay [2].

Consider `CC1(C)COc2cc(-c3ccc(-c4ccccc4)cc3)ccc2C1NC(=O)O[C@@H]1CN2CCC1CC2` (stereo partly drawn) [Example 242, (S)-quinuclidin-3-yl (7-([1,1′-biphenyl]-4-yl)-3,3-dimethylchroman-4-yl)carbamate], for which the values for the IC50 in assay [1] and in assay [2] were 3.8 nM and 0.53 nM, respectively.

With `CC1(C)COc2cc(-c3cncs3)ccc2C1NC(=O)O[C@@H]1CN2CCC1CC2` (stereo partly drawn) [Example 243, (S)-quinuclidin-3-yl (3,3-dimethyl-7-(thiazol-5-yl)chroman-4-yl)carbamate], the IC50 in assay [1] was 24.1 nM; in assay [2], 1.9 nM.

With `C=Cc1cccc(-c2ccc3c(c2)OCC(C)(C)C3NC(=O)O[C@@H]2CN3CCC2CC3)c1` (stereo partly drawn) [Example 244, (S)-quinuclidin-3-yl (3,3-dimethyl-7-(3-vinylphenyl)chroman-4-yl)carbamate], the IC50 was found to be 0.6 nM in assay [1] and 0.42 nM in assay [2].

With `COc1ncccc1-c1ccc2c(c1)OCC(C)(C)C2NC(=O)O[C@@H]1CN2CCC1CC2` (stereo partly drawn) [Example 245, (S)-quinuclidin-3-yl (7-(2-methoxypyridin-3-yl)-3,3-dimethylchroman-4-yl)carbamate], the results for the IC50 in assay [1] and in assay [2] were 4.7 nM and 0.95 nM, respectively.

`COc1cccc(-c2ccc3c(c2)OCC(C)(C)C3NC(=O)O[C@@H]2CN3CCC2CC3)n1` (stereo partly drawn) [Example 246, (S)-quinuclidin-3-yl (7-(6-methoxypyridin-2-yl)-3,3-dimethylchroman-4-yl)carbamate]: the results for the IC50 in assay [1] and in assay [2] were 1.3 nM and 0.75 nM, respectively.

Consider `CC1(C)COc2cc(-c3ccc(C#N)cc3)ccc2C1NC(=O)O[C@@H]1CN2CCC1CC2` (stereo partly drawn) [Example 247, (S)-quinuclidin-3-yl (7-(4-cyanophenyl)-3,3-dimethylchroman-4-yl)carbamate], for which the IC50 in assay [1] stood at 10.7 nM; in assay [2], 0.58 nM.

For the compound `Cc1ccc(-c2ccc3c(c2)OCC(C)(C)C3NC(=O)O[C@@H]2CN3CCC2CC3)c(F)n1` (stereo partly drawn) [Example 248, (S)-quinuclidin-3-yl (7-(2-fluoro-6-methylpyridin-3-yl)-3,3-dimethylchroman-4-yl)carbamate], the concentration for half-maximal inhibition (IC50) stood at 29.6 nM in assay [1] and 0.86 nM in assay [2].

Take `CC1(C)COc2cc(-c3ccc4c(c3)OCO4)ccc2C1NC(=O)O[C@@H]1CN2CCC1CC2` (stereo partly drawn) [Example 249, (S)-quinuclidin-3-yl (7-(benzo[d][1,3]dioxol-5-yl)-3,3-dimethylchroman-4-yl)carbamate]: the IC50 in assay [1] stood at 4 nM; in assay [2], 0.39 nM.

For the compound `CC1(C)COc2cc(-c3ccc(C4CC4)nc3)ccc2C1NC(=O)O[C@@H]1CN2CCC1CC2` (stereo partly drawn) [Example 250, (S)-quinuclidin-3-yl (7-(6-cyclopropylpyridin-3-yl)-3,3-dimethylchroman-4-yl)carbamate], the IC50 in assay [1] came to 5.4 nM; in assay [2] it was 0.35 nM.

As for `CN(C)c1ccc(-c2ccc3c(c2)OCC(C)(C)C3NC(=O)O[C@@H]2CN3CCC2CC3)cn1` (stereo partly drawn) [Example 251, (S)-quinuclidin-3-yl (7-(6-(dimethylamino)pyridin-3-yl)-3,3-dimethylchroman-4-yl)carbamate], the IC50 in assay [1] worked out at 17.5 nM; in assay [2] it was 1.64 nM.

As to `COc1ccc(F)cc1-c1ccc2c(c1)OCC(C)(C)C2NC(=O)O[C@@H]1CN2CCC1CC2` (stereo partly drawn) [Example 252, (S)-quinuclidin-3-yl (7-(5-fluoro-2-methoxyphenyl)-3,3-dimethylchroman-4-yl)carbamate], the IC50 in assay [1] was found to be 1.4 nM; in assay [2], 0.54 nM.

`CCOc1ccc(-c2ccc3c(c2)OCC(C)(C)C3NC(=O)O[C@@H]2CN3CCC2CC3)cn1` (stereo partly drawn) [Example 253, (S)-quinuclidin-3-yl (7-(6-ethoxypyridin-3-yl)-3,3-dimethylchroman-4-yl)carbamate]: the concentration for half-maximal inhibition (IC50) in assay [1] worked out at 6.4 nM; in assay [2], 0.76 nM.

With `COc1ncc(-c2ccc3c(c2)OCC(C)(C)C3NC(=O)O[C@@H]2CN3CCC2CC3)cc1C` (stereo partly drawn) [Example 254, (S)-quinuclidin-3-yl (7-(6-methoxy-5-methylpyridin-3-yl)-3,3-dimethylchroman-4-yl)carbamate], the concentration for half-maximal inhibition (IC50) in assay [1] came to 17.4 nM; in assay [2] it was 1.7 nM.

On to `COc1c(C)cc(-c2ccc3c(c2)OCC(C)(C)C3NC(=O)O[C@@H]2CN3CCC2CC3)cc1C` (stereo partly drawn) [Example 255, (S)-quinuclidin-3-yl (7-(4-methoxy-3,5-dimethylphenyl)-3,3-dimethylchroman-4-yl)carbamate], for which the IC50 in assay [1] came out at 5.1 nM; in assay [2], 1.2 nM.

With `CCCCc1ccc(-c2ccc3c(c2)OCC(C)(C)C3NC(=O)O[C@@H]2CN3CCC2CC3)cc1` (stereo partly drawn) [Example 256, (S)-quinuclidin-3-yl (7-(4-butylphenyl)-3,3-dimethylchroman-4-yl)carbamate], the concentration for half-maximal inhibition (IC50) in assay [1] came to 0.2 nM; in assay [2], 0.39 nM.

With `CC(C)Cc1ccc(-c2ccc3c(c2)OCC(C)(C)C3NC(=O)O[C@@H]2CN3CCC2CC3)cc1` (stereo partly drawn) [Example 257, (S)-quinuclidin-3-yl (7-(4-isobutylphenyl)-3,3-dimethylchroman-4-yl)carbamate], the IC50 in assay [1] was found to be 0.7 nM; in assay [2], 0.36 nM.

As to `CC(C)Oc1ccc(-c2ccc3c(c2)OCC(C)(C)C3NC(=O)O[C@@H]2CN3CCC2CC3)cn1` (stereo partly drawn) [Example 258, (S)-quinuclidin-3-yl (7-(6-isopropoxypyridin-3-yl)-3,3-dimethylchroman-4-yl)carbamate], the IC50 in assay [1] is 1 nM; in assay [2], 0.45 nM.

Turning to `CC1(C)COc2cc(-c3ccc(-c4ccon4)cc3)ccc2C1NC(=O)O[C@@H]1CN2CCC1CC2` (stereo partly drawn) [Example 259, (S)-quinuclidin-3-yl (7-(4-(isoxazol-3-yl)phenyl)-3,3-dimethylchroman-4-yl)carbamate], the IC50 in assay [1] was 6.9 nM; in assay [2], 1.14 nM.

On to `CC(C)COc1ccc(-c2ccc3c(c2)OCC(C)(C)C3NC(=O)O[C@@H]2CN3CCC2CC3)cc1` (stereo partly drawn) [Example 260, (S)-quinuclidin-3-yl (7-(4-isobutoxyphenyl)-3,3-dimethylchroman-4-yl)carbamate], for which the IC50 in assay [1] amounted to 0.3 nM; in assay [2] it was 0.51 nM.

Turning to `CC(C)Oc1ccc(-c2ccc3c(c2)OCC(C)(C)C3NC(=O)O[C@@H]2CN3CCC2CC3)cc1F` (stereo partly drawn) [Example 261, (S)-quinuclidin-3-yl (7-(3-fluoro-4-isopropoxyphenyl)-3,3-dimethylchroman-4-yl)carbamate], the IC50 in assay [1] worked out at 2.6 nM; in assay [2], 0.65 nM.
